ChEMBL document CHEMBL4033764, “Seeking (and Finding) Biased Ligands of the Kappa Opioid Receptor” (ACS Med Chem Lett, 2017)

target: Kappa-type opioid receptor (Homo sapiens, UniProt P41145); test: Agonist activity at human kappa opioid receptor expressed in CHO cells assessed as beta-arrestin2 recruitment by enzyme fragment complementation method; assay type: cell-based
Sequence (P41145 whole entry, the tested form may be a part): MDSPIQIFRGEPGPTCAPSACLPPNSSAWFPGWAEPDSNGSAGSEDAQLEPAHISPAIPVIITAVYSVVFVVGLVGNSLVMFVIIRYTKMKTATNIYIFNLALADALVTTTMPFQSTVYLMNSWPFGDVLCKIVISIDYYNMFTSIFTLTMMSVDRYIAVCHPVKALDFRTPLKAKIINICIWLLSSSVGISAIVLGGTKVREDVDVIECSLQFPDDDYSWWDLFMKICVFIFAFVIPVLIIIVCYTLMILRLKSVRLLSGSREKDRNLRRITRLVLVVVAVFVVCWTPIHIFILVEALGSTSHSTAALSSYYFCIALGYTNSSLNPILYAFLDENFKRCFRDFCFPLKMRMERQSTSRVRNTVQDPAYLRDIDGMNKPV

Point of comparison: `Cc1cc(CSc2nnc(-c3ccccn3)n2Cc2ccco2)ccc1C(F)(F)F`, EC50 4.13 µM. Against it:
- CN(CCc1ccc(Cl)c(Cl)c1)[C@@H]1CCCC[C@H]1N1CCCC1 — 73-fold lower, 0.0566 µM
- O=C(Nc1ccc(Cl)c(C(F)(F)F)c1)[C@H]1CC=C[C@H]2CCN(Cc3ccccc3)C(=O)[C@@H]12 — higher, > 10 µM
